Laboratory results from patent publication US5420140A, “Difluorinated quinolones useful for treating bacterial infections” (Bouchara S.A., priority 1991, dated 1995).
In brackets after ≈: the same amount, converted by molar mass.

Key:
[1] = test system: Bacillus subtilis ATCC 9372; test: Determination of MIC and MBC by microdilution method, Bacillus subtilis ATCC 9372; format: cell-based; conditions: for Minimal inhibitory concentration (MIC): Mueller-Hinton broth
Protocol: (§1) The compound have been tested towards 7 reference strains:
Bacillus subtilis ATCC 9372
(§2) The determination of minimal inhibitory concentrations (MIC) has been performed using a microdution method (microplates and inoculator Dynatech) in liquid medium (MUELLER-HINTON broth) under a volume of 100 μl and for a range of concentrations from 128 to 0.06 mg/l, prepared from a mother liquor of antibiotics titrating 512 mg/l. The preparation of these mother liquors has been performed and vary depending on the molecules as a function of the solubility criterions. Inoculation has been done by adding in each will, 10 μl of a dilution in saline of 18 hours old broth in a brain-heart broth, such as each well contains about 10^6 bacterias/ml.
(§3) The Minimal Inhibitory Concentrations are read as the first concentration of antibiotic which will not give a growth macroscopically detectable after 18 hours incubating at 37°.

[2] = test system: S. aureus CB-951; test: Determination of MIC and MBC by microdilution method, S. aureus CB-951; format: cell-based, Staphylococcus aureus; conditions: erythromycinolincomycino, pefloxacino resistant; for Minimal bactericidal concentration (MBC) / Minimal inhibitory concentration (MIC) / MIC: S. aureus CB-951, methicillino; for Minimal inhibitory concentration (MIC) / MIC: Mueller-Hinton broth, 18 hours at 37°; for MIC / MBC: Staphylococcus aureus; for MIC: CB951, 18 h, read-out: Minimal inhibitory concentration (MIC); for MBC: CB951, S. aureus CB-951, methicillino, read-out: Minimal bactericidal concentration (MBC)
Protocol: as §1
Staphylococcus aureus CB 951
as §2, §3

[3] = test system: Streptococcus faecalis ATCC 8043; test: Determination of MIC and MBC by microdilution method, Streptococcus faecalis ATCC 8043; format: cell-based; conditions: for Minimal bactericidal concentration (MBC) / Minimal inhibitory concentration (MIC) / MIC: S. faecalis ATCC 8043; for Minimal inhibitory concentration (MIC) / MIC: Mueller-Hinton broth, 18 hours at 37°; for MBC / MIC: Enterococcus faecalis; for MBC: ATCC8043, S. faecalis ATCC 8043, read-out: Minimal bactericidal concentration (MBC); for MIC: ATCC8043, read-out: Minimal inhibitory concentration (MIC)
Protocol: as §1
Streptococcus faecalis ATCC 8043
(§4) The preparation of these mother liquors has been performed and vary depending on the molecules as a function of the solubility criterions. Inoculation has been done by adding in each will, 10 μl of a dilution in saline of 18 hours old broth in a brain-heart broth, such as each well contains about 10^6 bacterias/ml. […]

[4] = test system: Escherichia coli ATCC 25922; test: Determination of MIC and MBC by microdilution method, Escherichia coli ATCC 25922; format: cell-based; conditions: E. coli ATCC 25922; for Minimal inhibitory concentration (MIC) / MIC: Mueller-Hinton broth, 18 hours at 37°; for MIC / MBC: Escherichia coli, ATCC25922; for MIC: read-out: Minimal inhibitory concentration (MIC); for MBC: read-out: Minimal bactericidal concentration (MBC)
Protocol: as §1
Escherichia coli ATCC 25922
as §2, §3

[5] = test system: Acinetobacter Baumanii ATCC 17904; test: Determination of MIC and MBC by microdilution method, Acinetobacter; format: cell-based; conditions: for Minimal bactericidal concentration (MBC) / Minimal inhibitory concentration (MIC) / MIC: Acinetobacter Baumanii ATCC 17904; for Minimal inhibitory concentration (MIC) / MIC: Mueller-Hinton broth, 18 hours at 37°; for MIC / MBC: Acinetobacter baumannii; for MIC: ATCC17904, 18 h, read-out: Minimal inhibitory concentration (MIC); for MBC: ATCC17904, Acinetobacter Baumanii ATCC 17904, read-out: Minimal bactericidal concentration (MBC)
Protocol: The compound have been tested towards 7 reference strains: […]
as §2, §3

[6] = test system: Staphylococcus aureus ATCC 25923; test: Determination of MIC and MBC by microdilution method, Staphylococcus aureus ATCC 25923; format: cell-based; conditions: for Minimal bactericidal concentration (MBC) / Minimal inhibitory concentration (MIC) / MIC: S. aureus ATCC 25923; for Minimal inhibitory concentration (MIC) / MIC: Mueller-Hinton broth, 18 hours at 37°; for MIC / MBC: Staphylococcus aureus; for MIC: ATCC25923, 18 h, read-out: Minimal inhibitory concentration (MIC); for MBC: ATCC25923, S. aureus ATCC 25923, read-out: Minimal bactericidal concentration (MBC)
Protocol: as §1
Staphylococcus aureus ATCC 25923
as §2, §3

[7] = test system: Pseudomonas aeruginosa ATCC 22853; test: Determination of MIC and MBC by microdilution method, Pseudomonas aeruginosa ATCC 22853; format: cell-based; conditions: for Minimal bactericidal concentration (MBC) / Minimal inhibitory concentration (MIC) / MIC: P. aeruginosa ATCC 22853; for Minimal inhibitory concentration (MIC) / MIC: Mueller-Hinton broth, 18 hours at 37°; for MIC / MBC: Pseudomonas aeruginosa; for MIC: ATCC22853, 18 h, read-out: Minimal inhibitory concentration (MIC); for MBC: ATCC22853, P. aeruginosa ATCC 22853, read-out: Minimal bactericidal concentration (MBC)
Protocol: as §1
Pseudomonas aeruginosa ATCC 22853
as §4

| MIC [2] | MIC [3] | MIC [4] | MIC [5] | MIC [6] | MIC [7] | Compound | Minimal bactericidal concentration (MBC) [1] | Minimal inhibitory concentration (MIC) ([1]; 18 hours at 37°) | Minimal bactericidal concentration (MBC) [2] | Minimal inhibitory concentration (MIC) [2] | Minimal bactericidal concentration (MBC) [3] | Minimal inhibitory concentration (MIC) [3] | Minimal bactericidal concentration (MBC) [4] | Minimal inhibitory concentration (MIC) [4] | MBC [2] | MBC [3] | MBC [4] | MBC [5] | MBC [6] | MBC [7] | also measured |
| --- | --- | --- | --- | --- | --- | --- | --- | --- | --- | --- | --- | --- | --- | --- | --- | --- | --- | --- | --- | --- | --- |
|  |  |  |  |  |  | C=CCn1cc(C(=O)O)c(=O)c2cc(F)c(N3CCC(NC(C)=O)CC3)c(F)c21 [Compound 9, 7-(4-acetylaminopiperidinyl-1) 6,8-difluoro 1-allyl 4-oxo 1,4-dihydroquinoleinyl-3 carboxylic acid] | 2 µg/mL (≈ 4.93 µM) | 1 µg/mL (≈ 2.47 µM) | 8 µg/mL (≈ 19.7 µM) | 4 µg/mL (≈ 9.87 µM) | 16 µg/mL (≈ 39.5 µM) | 4 µg/mL (≈ 9.87 µM) | 32 µg/mL (≈ 78.9 µM) | 16 µg/mL (≈ 39.5 µM) |  |  |  |  |  |  | Minimal bactericidal concentration (MBC) [5]: 8 µg/mL (≈ 19.7 µM); Minimal inhibitory concentration (MIC) [5]: 4 µg/mL (≈ 9.87 µM); Minimal bactericidal concentration (MBC) [6]: 4 µg/mL (≈ 9.87 µM); Minimal inhibitory concentration (MIC) [6]: 1 µg/mL (≈ 2.47 µM); Minimal bactericidal concentration (MBC) [7]: > 128 µg/mL; Minimal inhibitory concentration (MIC) [7]: > 128 µg/mL |
| 0.5 µg/mL (≈ 0.972 µM) | 8 µg/mL (≈ 15.5 µM) | 16 µg/mL (≈ 31.1 µM) | 0.06 µg/mL (≈ 0.117 µM) | 0.06 µg/mL (≈ 0.117 µM) | > 16 µg/mL | CCn1cc(C(=O)O)c(=O)c2cc(F)c(N3CCC(CNC(=O)Nc4ccc(OC)cc4)CC3)c(F)c21 [Compound 16, 7-[4-(4-methoxyphenyl)aminocarbonylaminomethylpiperidinyl-1] 6,8-difluoro1-ethyl] |  |  |  |  |  |  |  |  | 1 µg/mL (≈ 1.94 µM) | 16 µg/mL (≈ 31.1 µM) | 16 µg/mL (≈ 31.1 µM) | 0.03 µg/mL (≈ 0.0583 µM) | 0.06 µg/mL (≈ 0.117 µM) | > 16 µg/mL |  |
|  |  |  |  |  |  | C=CCn1cc(C(=O)O)c(=O)c2cc(F)c(N3CCC(CNC(=O)NC(=O)c4ccccc4)CC3)c(F)c21 [Compound 11, 7-[(4-benzoylaminocarboxamidomethyl)piperidinyl-1] 6,8-difluoro 1-allyl 4-oxo 1,4-dihydroquinoleinyl-3 carboxylic acid] | 1 µg/mL (≈ 1.91 µM) | 0,5 μg/ml | 4 µg/mL (≈ 7.63 µM) | 4 µg/mL (≈ 7.63 µM) | 32 µg/mL (≈ 61 µM) | 16 µg/mL (≈ 30.5 µM) | > 128 µg/mL | 128 µg/mL (≈ 244 µM) |  |  |  |  |  |  | Minimal bactericidal concentration (MBC) [5]: 4 µg/mL (≈ 7.63 µM); Minimal inhibitory concentration (MIC) [5]: 1 µg/mL (≈ 1.91 µM); Minimal bactericidal concentration (MBC) [6]: 4 µg/mL (≈ 7.63 µM); Minimal inhibitory concentration (MIC) [6]: 1 µg/mL (≈ 1.91 µM); Minimal bactericidal concentration (MBC) [7]: > 128 µg/mL; Minimal inhibitory concentration (MIC) [7]: 128 µg/mL (≈ 244 µM) |
| > 16 µg/mL | 16 µg/mL (≈ 34.6 µM) | 4 µg/mL (≈ 8.66 µM) | 4 µg/mL (≈ 8.66 µM) | 2 µg/mL (≈ 4.33 µM) | > 16 µg/mL | NCC1CCN(c2c(F)cc3c(=O)c(C(=O)O)cn(Cc4ccccc4Cl)c3c2F)CC1 [Compound 5, 7-(4-aminomethylpiperidinyl-1) 6,8-difluoro 1-(2-chlorobenzyl) 4-oxo 1,4-dihydroquinoleinyl-3 carboxylic acid] |  |  |  |  |  |  |  |  | > 16 µg/mL | > 16 µg/mL | 8 µg/mL (≈ 17.3 µM) | 8 µg/mL (≈ 17.3 µM) | 4 µg/mL (≈ 8.66 µM) | > 16 µg/mL |  |

| Compound | MIC [2] | MIC [3] | MIC [4] | MIC [5] | MIC [6] | MIC [7] | Minimal bactericidal concentration (MBC) [1] | Minimal inhibitory concentration (MIC) ([1]; 18 hours at 37°) | Minimal bactericidal concentration (MBC) [2] | Minimal inhibitory concentration (MIC) [2] | Minimal bactericidal concentration (MBC) [3] | Minimal inhibitory concentration (MIC) [3] | Minimal bactericidal concentration (MBC) [4] | Minimal inhibitory concentration (MIC) [4] | MBC [2] | MBC [3] | MBC [4] | MBC [5] | MBC [6] | MBC [7] | also measured |
| --- | --- | --- | --- | --- | --- | --- | --- | --- | --- | --- | --- | --- | --- | --- | --- | --- | --- | --- | --- | --- | --- |
| CCn1cc(C(=O)O)c(=O)c2cc(F)c(N3CCC(CN)CC3)c(F)c21 [Compound 1, 7-(4-aminomethylpiperidinyl-1) 6,8-difluoro 1-ethyl 4-oxo 1,4-dihydroquinoleinyl-3 carboxylic acid] | 2 µg/mL (≈ 5.47 µM) | 0.5 µg/mL (≈ 1.37 µM) | 0.5 µg/mL (≈ 1.37 µM) | 0.25 µg/mL (≈ 0.684 µM) | 0.25 µg/mL (≈ 0.684 µM) | 2 µg/mL (≈ 5.47 µM) |  |  |  |  |  |  |  |  | 2 µg/mL (≈ 5.47 µM) | 0.5 µg/mL (≈ 1.37 µM) | 0.5 µg/mL (≈ 1.37 µM) | 0.5 µg/mL (≈ 1.37 µM) | 0.25 µg/mL (≈ 0.684 µM) | 4 µg/mL (≈ 10.9 µM) | MIC ([1]; ATCC9372, Mueller-Hinton broth, 18 hours at 37°, read-out: Minimal inhibitory concentration (MIC)): 0.25 µg/mL (≈ 0.684 µM); MBC ([1]; ATCC9372, read-out: Minimal bactericidal concentration (MBC)): 0.25 µg/mL (≈ 0.684 µM) |
